Results reported in US11446287B2, “Compounds and methods for EP300 or CBP modulation and indications therefor” (Opna Immuno-Oncology SA, priority 2019, dated 2022).

These compounds were tested against T1, Recombinant human CBP containing the bromodomain (CBP-BD (1043-1159)) (Homo sapiens, UniProt Q92793) (assay: CBP Alphascreen binding assay). Details: read-out: CREBBP (CBP) IC50.
T1 construct: Recombinant human CBP bromodomain (CBP-BD (1043-1159)); made in house; host or cells: E. coli BL21-CodonPlus (DE3), modified pET vector
T1 sequence (Q92793 1081-1197): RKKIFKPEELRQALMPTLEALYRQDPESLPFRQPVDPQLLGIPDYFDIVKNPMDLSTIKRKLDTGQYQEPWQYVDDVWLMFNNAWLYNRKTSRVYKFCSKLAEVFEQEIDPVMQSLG
Summary of the method: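 Buffer: 50 mM HEPES pH 7.5, 50 mM NaCl, 0.01% BSA, 0.01% Triton X-100, 2 mM DTT. The signal was normalised to plate controls and fitted with a four-parameter curve to give IC50.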

Row | SMILES | IC50 [nM]
1 | Cc1noc(C)c1-c1cnc2c(-c3cn(C)nc3C3CC3)c(C(F)(F)F)n([C@@H](C)c3ccccn3)c2c1 [P-0237, (S)-4-(3-(3-cyclopropyl-1-methyl-1H-pyrazol-4-yl)-1-(1-(pyridin-2-yl)ethyl)-2-(trifluoromethyl)-1H-pyrrolo[3,2-b]pyridin-6-yl)-3,5-dimethylisoxazole] | 0.1 to 1000
2 | Cc1noc(C)c1-c1cnc2c(-c3cc(C(=O)O)ccc3F)c(C(F)(F)F)n([C@@H](C)c3ccccn3)c2c1 [P-0238, (S)-3-(6-(3,5-dimethylisoxazol-4-yl)-1-(1-(pyridin-2-yl)ethyl)-2-(trifluoromethyl)-1H-pyrrolo[3,2-b]pyridin-3-yl)-4-fluorobenzoic acid] | 0.1 to 1000
3 | COc1ccc(C(=O)O)cc1-c1c(C(F)(F)F)n([C@@H](C)c2ccccn2)c2cc(-c3c(C)noc3C)cnc12 [P-0239, (S)-3-(6-(3,5-dimethylisoxazol-4-yl)-1-(1-(pyridin-2-yl)ethyl)-2-(trifluoromethyl)-1H-pyrrolo[3,2-b]pyridin-3-yl)-4-methoxybenzoic acid] | 1000 to 8000
4 | Cc1noc(C)c1-c1cnc2c(-c3cc(F)cc(C(=O)O)c3)c(C(F)(F)F)n([C@@H](C)c3ccccn3)c2c1 [P-0240, (S)-3-(6-(3,5-dimethylisoxazol-4-yl)-1-(1-(pyridin-2-yl)ethyl)-2-(trifluoromethyl)-1H-pyrrolo[3,2-b]pyridin-3-yl)-5-fluorobenzoic acid] | 0.1 to 1000
5 | Cc1noc(C)c1-c1cnc2c(-c3cc(Cl)cc(C(=O)O)c3)c(C(F)(F)F)n([C@@H](C)c3ccccn3)c2c1 [P-0241, (S)-3-chloro-5-(6-(3,5-dimethylisoxazol-4-yl)-1-(1-(pyridin-2-yl)ethyl)-2-(trifluoromethyl)-1H-pyrrolo[3,2-b]pyridin-3-yl)benzoic acid] | 0.1 to 1000
6 | Cc1noc(C)c1-c1cnc2c(-c3ccc(C(=O)O)c(F)c3)c(C(F)(F)F)n([C@@H](C)c3ccccn3)c2c1 [P-0242, (S)-4-(6-(3,5-dimethylisoxazol-4-yl)-1-(1-(pyridin-2-yl)ethyl)-2-(trifluoromethyl)-1H-pyrrolo[3,2-b]pyridin-3-yl)-2-fluorobenzoic acid] | 1000 to 8000
